In US12502434B2, “Compound comprising EZH2 inhibitor and E3 ligase binder and pharmaceutical composition for preventing or treating EZH2-associated disease comprising same as active ingredient” (DAEGU-GYEONGBUK MEDICAL INNOVATION FOUNDATION, priority 2019, dated 2025):
Where two headings read alike, the source gives them in different places.

Biological target: T1, EZH2 protein in LS174T cells (Homo sapiens, UniProt Q15910)
T1 construct: endogenous in cells; host or cells: LS174T
Experiment: Proteolytic effect in colorectal cancer cells (Western blotting)
Type: cell-based
Protocol: After 72 hours of the treatment, the cells were collected and lysed using RIPA buffer (50 mM Tris, pH 7.5, 150 mM NaCl, 1% Triton X-100, 0.1% SDS, […], 0.5% deoxycholate, and protease inhibitor cocktail), followed by sonication (30 sec on/30 sec off, 5 cycles) to prepare a cell lysate.

[1] = EZH2 protein, LS174T cells, 1 μM, 72 hours
[2] = EZH2 protein, LS174T cells, 1 uM, 72 hours, Western blotting

T1 sequence (Q15910 whole entry): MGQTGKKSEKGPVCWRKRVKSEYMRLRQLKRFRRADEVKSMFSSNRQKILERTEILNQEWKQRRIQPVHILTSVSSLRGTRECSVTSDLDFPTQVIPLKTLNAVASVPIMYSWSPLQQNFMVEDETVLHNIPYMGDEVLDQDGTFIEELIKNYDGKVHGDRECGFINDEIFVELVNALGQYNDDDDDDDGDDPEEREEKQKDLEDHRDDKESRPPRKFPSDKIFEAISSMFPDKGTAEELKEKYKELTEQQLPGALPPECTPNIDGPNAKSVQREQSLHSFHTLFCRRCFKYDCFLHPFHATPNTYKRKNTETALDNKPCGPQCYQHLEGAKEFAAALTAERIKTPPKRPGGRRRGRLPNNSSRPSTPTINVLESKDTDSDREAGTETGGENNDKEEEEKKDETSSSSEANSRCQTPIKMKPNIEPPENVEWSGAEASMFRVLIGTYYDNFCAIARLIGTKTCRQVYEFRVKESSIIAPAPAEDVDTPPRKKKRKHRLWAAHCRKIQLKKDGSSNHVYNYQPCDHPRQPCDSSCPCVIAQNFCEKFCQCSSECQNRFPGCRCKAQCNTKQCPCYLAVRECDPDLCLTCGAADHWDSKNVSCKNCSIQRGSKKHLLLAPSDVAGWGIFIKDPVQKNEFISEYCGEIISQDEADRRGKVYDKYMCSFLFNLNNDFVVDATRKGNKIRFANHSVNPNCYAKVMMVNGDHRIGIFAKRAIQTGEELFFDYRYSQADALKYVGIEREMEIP
T1 sequence (O75530 whole entry partner): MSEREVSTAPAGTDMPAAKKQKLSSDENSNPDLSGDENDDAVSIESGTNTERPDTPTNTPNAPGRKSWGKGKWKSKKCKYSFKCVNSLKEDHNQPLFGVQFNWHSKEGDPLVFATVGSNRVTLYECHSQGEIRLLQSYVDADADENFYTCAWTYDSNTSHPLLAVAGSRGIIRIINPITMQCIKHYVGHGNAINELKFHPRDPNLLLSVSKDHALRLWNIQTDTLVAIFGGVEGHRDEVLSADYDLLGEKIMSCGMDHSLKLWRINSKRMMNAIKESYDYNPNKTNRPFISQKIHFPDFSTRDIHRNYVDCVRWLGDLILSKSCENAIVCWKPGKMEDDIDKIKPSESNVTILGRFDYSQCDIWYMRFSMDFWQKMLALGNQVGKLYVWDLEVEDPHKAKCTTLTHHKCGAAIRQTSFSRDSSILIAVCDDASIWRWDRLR
T1 sequence (Q15022 whole entry partner): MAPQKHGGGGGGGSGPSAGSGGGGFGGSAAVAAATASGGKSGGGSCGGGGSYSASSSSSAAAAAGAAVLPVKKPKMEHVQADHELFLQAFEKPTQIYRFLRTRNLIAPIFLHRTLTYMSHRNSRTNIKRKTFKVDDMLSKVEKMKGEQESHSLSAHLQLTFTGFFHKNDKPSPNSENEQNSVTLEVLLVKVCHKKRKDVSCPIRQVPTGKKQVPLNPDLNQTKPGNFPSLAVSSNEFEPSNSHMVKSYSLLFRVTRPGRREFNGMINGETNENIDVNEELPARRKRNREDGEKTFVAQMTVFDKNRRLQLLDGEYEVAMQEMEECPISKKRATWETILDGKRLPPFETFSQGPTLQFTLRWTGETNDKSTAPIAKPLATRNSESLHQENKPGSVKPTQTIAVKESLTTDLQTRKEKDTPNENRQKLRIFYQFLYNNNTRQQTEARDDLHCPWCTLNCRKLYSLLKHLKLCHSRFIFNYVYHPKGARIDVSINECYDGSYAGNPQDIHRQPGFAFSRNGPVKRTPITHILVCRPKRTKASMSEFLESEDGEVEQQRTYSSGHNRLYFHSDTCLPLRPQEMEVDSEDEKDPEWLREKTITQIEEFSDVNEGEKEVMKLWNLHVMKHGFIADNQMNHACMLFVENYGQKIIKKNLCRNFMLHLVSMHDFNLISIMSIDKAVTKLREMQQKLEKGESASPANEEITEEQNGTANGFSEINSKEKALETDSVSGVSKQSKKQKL

Compound | %, degradation at 1 uM [%] | Grade (percent value of the protein degradation when treated with 1 μM) | Grade (percent value of the protein degradation when treated with 1 μM) [1] | %, degradation at 1 uM [2] [%] | EZH2 proteolytic effect by Western blotting (figure, in words) (FIGS. 1 to 5) | effect of degrading EZH2 protein when treated to colorectal cancer cells (in words) (LS174T cells)
CCN(c1cc(-c2ccc(CN3CCN(CC(=O)NCCOCCCNc4cccc5c4C(=O)N(C4CCC(=O)NC4=O)C5=O)CC3)cc2)cc(C(=O)NCc2c(C)cc(C)[nH]c2=O)c1C)C1CCOCC1 (centres unmarked) [Example 16, N-((4,6-dimethyl-2-oxo-1,2-dihydropyridine-3-yl)methyl)-4′-((4-(2-((2-(3-((2-(2,6-dioxopiperidine-3-yl)-1,3-dioxoisoindoline-4-yl)amino)propoxy)ethyl)amino)-2-oxoethyl)piperazine-1-yl)methyl)-5-(ethyl(tetrahydro-2H-pyran-4-yl)amino)-4-methyl-[1,1′-biphenyl]-3-carboxamide] | 5.51 | D (key: A: >75%; B: 50-75%; C: 25-50%; D: <25%) |  |  |  | 
CCN(c1cc(-c2ccc(CN3CCN(CC(=O)NCCCOCCOc4cccc5c4C(=O)N(C4CCC(=O)NC4=O)C5=O)CC3)cc2)cc(C(=O)NCc2c(C)cc(C)[nH]c2=O)c1C)C1CCOCC1 (centres unmarked) [Example 17, N-((4,6-dimethyl-2-oxo-1,2-dihydropyridine-3-yl)methyl)-4′-((4-(2-((3-(2-((2-(2,6-dioxopiperidine-3-yl)-1,3-dioxoisoindoline-4-yl)oxy)ethoxy)propyl)amino)-2-oxoethyl)piperazine-1-yl)methyl)-5-(ethyl(tetrahydro-2H-pyran-4-yl)amino)-4-methyl-[1,1′-biphenyl]-3-carboxamide] | 3.25 | D (key: A: >75%; B: 50-75%; C: 25-50%; D: <25%) |  |  |  | 
CCN(c1cc(-c2ccc(CN3CCN(CC(=O)NCCOCCCOc4cccc5c4C(=O)N(C4CCC(=O)NC4=O)C5=O)CC3)cc2)cc(C(=O)NCc2c(C)cc(C)[nH]c2=O)c1C)C1CCOCC1 (centres unmarked) [Example 18, N-((4,6-dimethyl-2-oxo-1,2-dihydropyridine-3-yl)methyl)-4′-((4-(2-((2-(3-((2-(2,6-dioxopiperidine-3-yl)-1,3-dioxoisoindoline-4-yl)oxy)propoxy)ethyl)amino)-2-oxoethyl)piperazine-1-yl)methyl)-5-(ethyl(tetrahydro-2H-pyran-4-yl)amino)-4-methyl-[1,1′-biphenyl]-3-carboxamide] |  |  | D (<25%) | 16.74 |  | 
CCN(c1cc(-c2ccc(CN3CCN(CCOCCCCCCNc4cccc5c4C(=O)N(C4CCC(=O)NC4=O)C5=O)CC3)cc2)cc(C(=O)NCc2c(C)cc(C)[nH]c2=O)c1C)C1CCOCC1 (centres unmarked) [Example 19, N-((4,6-dimethyl-2-oxo-1,2-dihydropyridine-3-yl)methyl)-4′-((4-(2-((6-((2-(2,6-dioxopiperidine-3-yl)-1,3-dioxoisoindoline-4-yl)amino)hexyl)oxy)ethyl)piperazine-1-yl)methyl)-5-(ethyl(tetrahydro-2H-pyran-4-yl)amino)-4-methyl-[1,1′-biphenyl]-3-carboxamide] |  |  | D (<25%) | 9.07 |  | 
CCN(c1cc(-c2ccc(CN3CCN(CC(=O)NCCCCCCNc4cccc5c4CN(C4CCC(=O)NC4=O)C5=O)CC3)cc2)cc(C(=O)NCc2c(C)cc(C)[nH]c2=O)c1C)C1CCOCC1 (centres unmarked) [Example 20, N-((4,6-dimethyl-2-oxo-1,2-dihydropyridine-3-yl)methyl)-4′-((4-(2-((6-((2-(2,6-dioxopiperidine-3-yl)-1-oxoisoindoline-4-yl)amino)hexyl)amino)-2-oxoethyl)piperazine-1-yl)methyl)-5-(ethyl(tetrahydro-2H-pyran-4-yl)amino)-4-methyl[1,1′-biphenyl]-3-carboxamide] | 58.73 | B (key: A: >75%; B: 50-75%; C: 25-50%; D: <25%) |  |  |  | 
CCN(c1cc(-c2ccc(CN3CCN(CCNCCCCCCNc4cccc5c4C(=O)N(C4CCC(=O)NC4=O)C5=O)CC3)cc2)cc(C(=O)NCc2c(C)cc(C)[nH]c2=O)c1C)C1CCOCC1 (centres unmarked) [Example 21, N-((4,6-dimethyl-2-oxo-1,2-dihydropyridine-3-yl)methyl)-4′-((4-(2-((6-((2-(2,6-dioxopiperidine-3-yl)-1,3-dioxoisoindoline-4-yl)amino)hexyl)amino)ethyl)piperazine-1-yl)methyl)-5-(ethyl(tetrahydro-2H-pyran-4-yl)amino)-4-methyl-[1,1′-biphenyl]-3-carboxamide] |  |  | A (>75%) | 83.09 | confirming the EZH2 proteolytic effect | excellent effects
CCN(c1cc(-c2ccc(CN3CCN(CC(=O)NCCCCCCNc4cccc5c4C(=O)N(C4CCC(=O)NC4=O)C5)CC3)cc2)cc(C(=O)NCc2c(C)cc(C)[nH]c2=O)c1C)C1CCOCC1 (centres unmarked) [Example 22, N-((4,6-dimethyl-2-oxo-1,2-dihydropyridine-3-yl)methyl)-4′-((4-(2-((6-((2-(2,6-dioxopiperidine-3-yl)-3-oxoisoindoline-4-yl)amino)hexyl)amino)-2-oxoethyl)piperazine-1-yl)methyl)-5-(ethyl(tetrahydro-2H-pyran-4-yl)amino)-4-methyl-[1,1′-biphenyl]-3-carboxamide] |  |  | D (<25%) | 0 |  | 
CCN(c1cc(-c2ccc(CN3CCN(Cc4cn(CCCNc5cccc6c5C(=O)N(C5CCC(=O)NC5=O)C6=O)nn4)CC3)cc2)cc(C(=O)NCc2c(C)cc(C)[nH]c2=O)c1C)C1CCOCC1 (centres unmarked) [Example 23, N-((4,6-dimethyl-2-oxo-1,2-dihydropyridine-3-yl)methyl)-4′-((4-((1-(3-((2-(2,6-dioxopiperidine-3-yl)-1,3-dioxoisoindoline-4-yl)amino)propyl)-1H-1,2,3-triazole-4-yl)methyl)piperazine-1-yl)methyl)-5-(ethyl(tetrahydro-2H-pyran-4-yl)amino)-4-methyl-[1,1′-biphenyl]-3-carboxamide] |  |  | D (<25%) | 1.52 |  | 
CCN(c1cc(-c2ccc(CN3CCN(Cc4cn(CCOCCNc5cccc6c5C(=O)N(C5CCC(=O)NC5=O)C6=O)nn4)CC3)cc2)cc(C(=O)NCc2c(C)cc(C)[nH]c2=O)c1C)C1CCOCC1 (centres unmarked) [Example 24, N-((4,6-dimethyl-2-oxo-1,2-dihydropyridine-3-yl)methyl)-4′-((4-((1-(2-(2-((2-(2,6-dioxopiperidine-3-yl)-1,3-dioxoisoindoline-4-yl)amino)ethoxy)ethyl)-1H-1,2,3-triazole-4-yl)methyl)piperazine-1-yl)methyl)-5-(ethyl(tetrahydro-2H-pyran-4-yl)amino)-4-methyl-[1,1′-biphenyl]-3-carboxamide] |  |  | D (<25%) | 0 |  | 
